Data taken from patent publication US10201559B2, “Compositions of selenoorganic compounds and methods of use thereof” (Alltech, Inc., priority 2014, dated 2019).

How the values were obtained:
AML-12 cells [1] = assay: Quantitative analysis of mitochondrial potential in AML-12 cells; type: cell-based, mouse; settings: 150 ppb (of each compound), 6 and 24 hr
Procedure: For AML-12 liver cells, cells were amplified in 10% FBS Dulbecco's modified Eagle's medium and Ham's F12 medium (1:1) (DMEM/F12) media supplemented with 1× Insulin/Transferin/Selenium (ITS, Sigma). Then equal number of cells (1×10^4 cells/well) were seeded on Corning 96-well clear-bottom and dark-wall cell culture plates (VWR, Radnor, Pa.), cultured in ITS-free 10% FBS DMEM/F12 media for 24 hr., and then subjected to the treatments of various compounds or combination of compounds for 6, 24, and 48 hr. Mitochondrial potential in living cells was determined by quantitative analysis of fluorescence intensities using the Mitotracker orange dye as described above. In addition, the above treated cells were also incubated with Hoechst 33342 dye (Invitrogen, Grand Island, N.Y.) to stain cell nuclei according to the Manufacturer's protocol. The fluorescent intensities of stained cell nuclei by Hoechst 33342 dye were also determined by the fluorescence microplate reader. The mitochondrial potential per cell in living cells was obtained by normalizing the fluorescence intensities of Mitotracker orange dye to the fluorescence intensities of Hoechst 33342 dye in each well. Eight samples per each treatment were examined for the above analysis and data are presented as mean±sem of eight samples.

AML-12 cells [2] = assay: Cell viability assay, AML-12; type: cell-based, mouse; settings: 48 hr
Procedure: Cell viability in cultured cells was determined using Promega's CellTiter96® AQueous One Solution Cell Proliferation Assay kits, according to the Manufacturer's protocol. In brief, equal number of C2C12 (1×10^4 cells/well), AML-12 (1×10^4 cells/well) and IMR-32 (2×10^4 cells/well) were seeded on 96-well clear plates (VWR) and treated with vehicle or compounds for 24, […] and/or 72 hr. Then, cultured cells were incubated with AQueous One solution (100 ul/per well) at 37° C. for 1 hr, and the absorbance of OD490 nm in each sample was determined by the Bio-Tek microplate reader. Cell viability in culture cells were determined by the subtraction of OD490 nm in cultured cells with the OD490 nm in plain culture media (without seeding of cells). Eight samples per each treatment were examined for the above analysis. Data are presented as Mean±sem of eight samples.

Nicastrin [3] = assay: Real-time RT-PCR, Nicastrin in IMR-32 cells; type: cell-based, human
Procedure: (§1) Human IMR-32 cells were seeded on gelatinized 6-well (6.5×10^5 cells/well) or 24-well (1.3×10^5 cells/well) plates, while mouse liver AML-12 cells were cultured on uncoated 6-well (3.33×10^5 cells/well) or 24-well (6.7×10^4 cells/well) plates. Cells were treated with vehicle (control) or various compounds for 6, 24 or 48 hr. Total RNA from these cells was using Trizol (Invitrogen) according to the Manufacturer's protocol, and then incubated with DNase I to remove any potential contaminated genomic DNA. Then RNA samples were subjected to real-time PCR analysis using the Applied-Bioscience's RT kit and predesigned Taqman probes (Invitrogen), as described previously (Lan et al EMBO J 2003). Three to six samples were analyzed in each treatment group. Data were normalized by Actin B (Actb) or Glyceraldehyde Phosphate Dehydrogenase (Gapdh) levels in each sample, and are presented as mean±sem of 3-6 samples.

Gsk3b = assay: Real-time RT-PCR, Gsk3b in IMR-32 cells; type: cell-based, human
Procedure: as §1

Nicastrin [4] = assay: Western blot, Nicastrin in IMR-32 cells; type: cell-based, human; settings: 150 ppb, 24 hr
Procedure: (§2) IMR-32 and AML12 cells were seeded on 6-well plates, and then treated with vehicle and various compounds for 6 and 24 hr, as described above. After treatments, cells were rinsed with ice-cold PBS, and lysed in the ice-cold RIPA buffer containing complete proteinase and phosphotase inhibitors (Themo-Fisher Scientific, Waltham, Mass.) on ice for 30 min. Cell lysates were collected using a cell scraper and transfer pipette, and then centrifuged at 12000 g for 30 min at 4° C. to remove the DNA pellet and obtain the protein extract. Protein levels in the supernatant of these cell lysates were determined using the Pierce Micro-BCA protein assay kit (Themo Scientific-Piece Biotechnology, Rockford, Ill.) according to the manufacturer's protocol.
(§3) For Western blot analysis, five micrograms of total proteins from vehicle- and compound(s)-treated cells were subjected to SDS-PAGE gel separation, and then transferred to PVDF membranes, as described previously (Reddy, Liu et al. 2008 Science). Membranes were blocked in a phosphate-buffered saline (PBS) containing 5% (w/v) of bovine serum albumin (Sigma, St. Louis, Mo.), and incubated with specific primary antibodies followed by the incubation with HRP-conjugated anti-mouse or anti-rabbit secondary antibodies (1:5000 dilution, Cell Signaling Inc.). All primary antibodies except G6PC (Santa Cruz), Actb (Li-COR, Lincoln, Nebr.), Elf2bε and pElf2bε (Abcam, Cambridge, Mass.) were purchased from Cell Signaling Inc. Positive signals on the membrane blots were detected using the Amersham's enhanced chemiluminescence Western Blotting Prime Detection reagents (GE healthcare Lifescience, Pittsburgh, Pa.). Images of these luminescence signals on the membrane blots were captured using the LI-COR Odyssey Fc Image system (Lincoln, Nebr.). […] Protein band densities in the Western blots were determined using the Li-COR Image studio software or NIH ImageJ software, and then normalized by Actb level in each sample. […]

pTau S400/T403/S404 = assay: Western blot, pTau S400/T403/S404 in IMR-32 cells; type: cell-based, human; settings: 150 ppb, 24 hr
Procedure: as §2, §3

total Tau = assay: Western blot, total Tau in IMR-32 cells; type: cell-based, human; settings: 150 ppb, 24 hr
Procedure: as §2, §3

pFOXO4 T28 = assay: Western blot, pFOXO4 T28 in IMR-32 cells; type: cell-based, human; settings: individual compound, 150 ppb
Procedure: as §2
(§4) For Western blot analysis, five micrograms of total proteins from vehicle- and compound(s)-treated cells were subjected to SDS-PAGE gel separation, and then transferred to PVDF membranes, as described previously (Reddy, Liu et al. 2008 Science). Membranes were blocked in a phosphate-buffered saline (PBS) containing 5% (w/v) of bovine serum albumin (Sigma, St. Louis, Mo.), and incubated with specific primary antibodies followed by the incubation with HRP-conjugated anti-mouse or anti-rabbit secondary antibodies (1:5000 dilution, Cell Signaling Inc.). All primary antibodies except G6PC (Santa Cruz), Actb (Li-COR, Lincoln, Nebr.), Elf2bε and pElf2bε (Abcam, Cambridge, Mass.) were purchased from Cell Signaling Inc. Positive signals on the membrane blots were detected using the Amersham's enhanced chemiluminescence Western Blotting Prime Detection reagents (GE healthcare Lifescience, Pittsburgh, Pa.). Images of these luminescence signals on the membrane blots were captured using the LI-COR Odyssey Fc Image system (Lincoln, Nebr.). The same membrane blot was striped and re-blotted with another antibody as described in the GE WB ECL-prime-detection protocol (GE healthcare Lifescience, Pittsburgh, Pa.). Protein band densities in the Western blots were determined using the Li-COR Image studio software or NIH ImageJ software, and then normalized by Actb level in each sample. Data are presented as mean±sem of three samples per each group.

total FOXO = assay: Western blot, total FOXO in IMR-32 cells; type: cell-based, human; settings: 150 ppb (of each compound)
Procedure: as §2, §3

pAKT [5] = assay: Western blot, pAKT in IMR-32 cells; type: cell-based, human; settings: 150 ppb
Procedure: as §2, §3

pAKT [6] = assay: Western blot, pAKT in AML-12 cells; type: cell-based, mouse; settings: for increased phosphorylation of AKT: individual compounds, 6 or 24 hr
Procedure: as §2, §4

pGSk3a = assay: Western blot, pGSk3a in AML-12 cells; type: cell-based, mouse; settings: individual compounds, 6 or 24 hr
Procedure: as §2, §3

pGSK3b = assay: Western blot, pGSK3b in AML-12 cells; type: cell-based, mouse; settings: individual compounds, 6 or 24 hr
Procedure: as §2, §3

pElf2be = assay: Western blot, pElf2be S539 in AML-12 cells; type: cell-based, mouse; settings: for increased phosphorylation of Elf2be: individual compounds, 6 or 24 hr
Procedure: as §2, §4

pFOXOs = assay: Western blot, FOXO phosphorylation (pFOXOs) in AML-12 cells treated with individual compounds; type: cell-based, mouse; settings: 150 ppb, 6 or 24 hr
Procedure: as §2, §3

Compound	MT potential (AML-12 cells [1])	cell viability (OD490 nm) (AML-12 cells [2])	Nicastrin mRNA expression (Nicastrin [3]; 6 hr)	Nicastrin mRNA expression (Nicastrin [3]; 24 hr)	Gsk3b mRNA expression (Gsk3b; 6 hr)	Gsk3b mRNA expression (Gsk3b; 24 hr)	Nicastrin protein level (Nicastrin [4])	phosphorylation of Tau at S400/T403/S404 (pTau S400/T403/S404)	total Tau protein level (total Tau)	decrease of pFoxo4 (pFOXO4 T28) levels (pFOXO4 T28; 6 hr)	decrease of pFoxo4 (pFOXO4 T28) levels (pFOXO4 T28; 24 hr)	total FOXO levels (total FOXO)	pAKT protein levels (pAKT [5])	increased phosphorylation of AKT (pAKT [6])	increased phosphorylation of Gsk3a (pGSk3a)	increased phosphorylation of Gsk3b (pGSK3b)	increased phosphorylation of Elf2be (pElf2be)	FOXO phosphorylation (increased pFOXOs) (pFOXOs)	levels of pAKT (pAKT [6]; individual compound, 6 hr)	levels of pElf2bε S539 (pElf2be; individual compound, 6 hr)
C[Se]C[C@H]1O[C@@H](n2cnc3c(N)ncnc32)C(O)C1O (stereo in doubt) [compound C, 5′-Methylselenoadenosine]	did not significantly affect MT potential	no toxic effects	trend towards reduced Nicastrin mRNA expression	significant decrease in Nicastrin mRNA expression	significantly decreased	trend of decreased Gsk3b mRNA expression	significant reduction	significantly inhibited the phosphorylation of Tau at S400/T403/S404	did not affect total Tau protein level	statistically significant	statistically significant	neither the CDE combination nor the individual C, D or E treatments brought about any change	not visibly decreased	did not observed the increased phosphorylation	did not observed the increased phosphorylation	did not observed the increased phosphorylation	did not observed the increased phosphorylation	did not increase FOXO phosphorylation		
Nc1ncnc2c1ncn2[C@@H]1O[C@H](C[Se]CC[C@@H](N)C(=O)O)C(O)C1O (some centres unmarked) [compound D, 5′-Selenoadenosyl homocysteine]	did not significantly affect MT potential	no toxic effects		did not inhibit, but instead stimulated	did not significantly inhibit Gsk3b mRNA expression	significant increase of Gsk3b mRNA expression	trend towards reduced Nicastrin protein expression	had no effect on Tau phosphorylation at all tested serine/threonine residues	had no effect	statistically significant		neither the CDE combination nor the individual C, D or E treatments brought about any change	not visibly decreased	did not observed the increased phosphorylation	did not observed the increased phosphorylation	did not observed the increased phosphorylation	did not observed the increased phosphorylation	did not increase FOXO phosphorylation		
C[Se]CC(NC(=O)CCC(N)C(=O)O)C(=O)O (centres unmarked) [compound E, gamma-glutamyl-methylseleno-cysteine]	did not significantly affect MT potential	no toxic effects		did not inhibit, but instead stimulated	did not significantly inhibit Gsk3b mRNA expression	significant increase of Gsk3b mRNA expression	trend towards reduced Nicastrin protein expression	significantly down-regulated	significantly down-regulated	statistically significant	statistically significant	neither the CDE combination nor the individual C, D or E treatments brought about any change	not visibly decreased	did not observed the increased phosphorylation	did not observed the increased phosphorylation	did not observed the increased phosphorylation	did not observed the increased phosphorylation	did not increase FOXO phosphorylation	slightly reduce	slightly reduce
